Measurements as given in patent US20030228263A1, “Propagermanium for treating myeloma bone disease and other bone disorders” (SurroMed, Inc., priority 2002, published 2003).

Key:
[1] = test system: macrophages; details: mouse, in vivo; cited from earlier work
[2] = test system: human bone marrow cells stimulated with MIP-1α; test: Formation of human osteoclasts (23c6-positive multinucleated cells) in long-term marrow cultures; assay type: cell-based; details: for increase in the number of osteoclasts formed over untreated marrow: 200 pg/ml MIP-1α or 10^−8 M 1,25-(OH)2D3 alone, 23c6-positive cells, about three weeks, FIG. 3
Method: Human long-term marrow cultures were performed as described in D. E. Hughes et al., “Estrogen promotes apoptosis of murine osteoclasts mediated by TGF-β,” Nature Medicine 2: 1132-1136, 1996, which is incorporated herein by reference. Briefly, human bone marrow nonadherent mononuclear cells from normal volunteers were cultured at 10^6 cells/ml in α-minimum essential medium and 20% horse serum with or without 10^−8 M 1,25-(OH)2D3 (vitamin D), 200 pg/ml MIP-1α, 20 ng/ml anti-human MIP-1α antibody, and varying concentrations of propagermanium. Five wells of each of ten different culture conditions were prepared in a 96-well plate. Each well contained 10^5 cells and the desired combination of reagents. Half of the culture medium was changed weekly. After approximately three weeks, the cultures were harvested and stained with the 23c6 monoclonal antibody, which identifies the osteoclast vitronectin receptor, and the 23c6-positive multinucleated cells counted. The 23c6 assay is more specific than the TRAP assay (used in Example 1 for mouse osteoclasts) for human osteoclasts.
Results are shown in FIG. 3, a plot of fold increase in osteoclasts over the number of osteoclasts formed in untreated marrow for each set of wells. Well conditions are indicated below the bars. Results are reported as the mean±S.E. for five replicate samples and were compared by Student's t test.

[3] = test system: mouse bone marrow cells stimulated with MIP-1α; test: Formation of mouse osteoclasts (TRAP staining) in bone marrow cultures; assay type: cell-based; details: 1 μg/ml propagermanium, two different concentrations of MIP-1α, with 10^−11 M vitamin D, FIG. 2
Method: Bone marrow cells (10^6 cells/culture) from C57B1 mice were isolated and cultured for osteoclast-like multinucleated cell formation in the presence or absence of 1, 10, or 100 ng/ml MIP-1α, 10^−11 M 1,25-(OH)2D3 (vitamin D), and varying concentrations of anti-human MIP-1α antibody (20 or 100 ng/ml), anti-CCR1 receptor antibody (20 or 100 ng/ml), anti-CCR5 receptor antibody (20 or 100 ng/ml), and 1 μg/ml propagermanium. Twelve different culture compositions were each prepared in four wells of a 48-well plate. After approximately six or seven days, the cultures were stained for the enzyme tartrate-resistant acid phosphatase (TRAP), an enzyme secreted into the circulation by osteoclasts during bone resorption, using an acid phosphatase staining kit (Sigma). TRAP-positive multinucleated cells containing three or more nuclei (assumed to be osteoclasts) were counted with an inverted microscope. The readout can be either the total amount of TRAP (TRAP activity) or the number of osteoclasts.

[4] = test system: monocytes; details: cited from earlier work

Row | Molecule | recruitment of macrophages into the liver [1] | number of osteoclasts formed in response to MIP-1α stimulation ([2]; 200 pg/ml MIP-1α, varying concentrations of propagermanium) | effect on osteoclast formation in response to vitamin D stimulation ([2]; 10^−8 M 1,25-(OH)2D3, varying concentrations of propagermanium) | inhibition of the effect of MIP-1α on osteoclast formation ([2]; highest dose of propagermanium, compared with 20 ng/ml anti-human MIP-1α antibody) | reduction of the number of osteoclasts formed [3] | chemotactic response of monocytes to the CC chemokine MCP-1 [4] | direct interaction with the chemokine receptor CCR2 [4] | increase in the number of osteoclasts formed over untreated marrow [2]
1 | 3-oxygermylpropionic acid polymer [Propagermanium] | suppress | dose-dependent reduction | no effect | comparable to that of the anti-human MIP-1α antibody | greater than a factor of four | inhibit | did not appear to interact directly | 
2 | C=C1/C(=C\C=C2/CCC[C@]3(C)[C@@H]([C@H](C)CCCC(C)(C)O)CC[C@@H]23)C[C@@H](O)C[C@@H]1O [vitamin D, 1,25-(OH)2D3] |  |  |  |  |  |  |  | greater than two-fold increase
3 | MIP-1α: CC chemokine macrophage inflammatory protein-1α, used as osteoclast stimulus (protein, UniProt P10147 24-92, looked up) C-C motif chemokine 3: SLAADTPTACCFSYTSRQIPQNFIADYFETSSQCSKPGVIFLTKRSRQVCADPSEEWVQKYVSDLELSA |  |  |  |  |  |  |  | greater than two-fold increase
